Here are results for 21 compounds from ChEMBL document CHEMBL4706515, “Discovery of new [1,2,4] Triazolo[1,5-a]Pyrimidine derivatives that Kill gastric cancer cells via the mitochondria pathway” (Eur J Med Chem, 2020).

Series [1] concerns MGC-803. The experiment in a line: Antiproliferative activity against human MGC-803 cells assessed as inhibition of cell growth at 10 uM measured after 72 hrs by SRB assay relative to control. The format is functional. For orientation: The SRB assay estimates cell density from bound dye.
In a further series the test system is MKN-45. Briefly: Antiproliferative activity against human MKN-45 cells assessed as inhibition of cell growth at measured after 72 hrs by SRB assay. It is filed as functional.
Another series relates to SGC-7901. The experiment in a line: Antiproliferative activity against human SGC-7901 cells assessed as inhibition of cell growth at measured after 72 hrs by SRB assay. It is filed as functional.
In another series the test system is HGC-27. Briefly: Antiproliferative activity against human HGC-27 cells assessed as inhibition of cell growth at measured after 72 hrs by SRB assay. It is filed as functional.
The test system of the next series is EJ. Briefly: Antiproliferative activity against human EJ cells assessed as inhibition of cell growth at measured after 72 hrs by SRB assay. The format is functional.
In another series the test system is GES1. The experiment in a line: Cytotoxicity against human GES1 cells assessed as inhibition of cell growth at measured after 72 hrs by SRB assay. The settings on record: ges1, 72 h. It is filed as cell-based.
The subject of another series is A549. Briefly: Antiproliferative activity against human A549 cells assessed as inhibition of cell growth at measured after 72 hrs by SRB assay. The format is functional.
Another series relates to BGC-823. The experiment in a line: Antiproliferative activity against human BGC-823 cells assessed as inhibition of cell growth at measured after 72 hrs by SRB assay. It is filed as functional.
Series [2] relates to MGC-803. Briefly: Antiproliferative activity against human MGC-803 cells assessed as inhibition of cell growth at measured after 72 hrs by SRB assay. The format is functional.

Activity calls are given as the source filed them. The calls are words filed in the database; no cut-off is given here.

One may read the inhibition as the drop in the measured response relative to a control, in per cent. Take `Cc1cc(Nc2ccc(C(=O)/C=C/c3cccc(Br)n3)cc2)n2nc(SCc3ccc(F)cc3)nc2n1`: the inhibition at 10 µM in the series with MGC-803 [1] worked out at 93.3%.
For the compound `Cc1cc(Nc2ccc(C(=O)/C=C/c3cccc(Br)n3)cc2)n2ncnc2n1`, in the series with MGC-803 [1], the inhibition at 10 µM came out at 58.4%.
In the case of `Cc1cc(Nc2ccccc2)n2nc(SCc3nc4ccccc4[nH]3)nc2n1`, the inhibition at 10 µM in the series on MGC-803 [1] was 22.4%.
Same read-out and setting: under `C#CCSc1nc2nc(-c3ccccc3)cc(Nc3ccc(C(=O)/C=C/c4cccc(Br)n4)cc3)n2n1` stands 56.3%.
Consider `O=C(/C=C/c1cccc(Br)n1)c1ccc(Nc2cc(-c3ccccc3)nc3nc(SCc4ccccc4)nn23)cc1`, for which, in the series with MGC-803 [1], the inhibition at 10 µM came out at 38.3%.
For `Cc1nc2nc(SCc3ccc(Cl)cc3)nn2c(Nc2ccc(C(=O)/C=C/c3cccc(Br)n3)cc2)c1C`, in the series with MGC-803 [1], the inhibition at 10 µM came out at 72.5%.
In the case of `Cc1cc(Nc2cc(-c3ccccc3)[nH]n2)n2nc(SCc3nc4ccccc4[nH]3)nc2n1`, the inhibition at 10 µM in the series with MGC-803 [1] is 78.4%.
Turning to `Cc1cc(Nc2ccc(C(=O)/C=C/c3cccc(Br)n3)cc2)n2nc(SCc3ccccc3[N+](=O)[O-])nc2n1`, the inhibition at 10 µM in the series with MGC-803 [1] came to 92.3%.
One may read the GI50 as the concentration that inhibits growth by half. For the compound `Cc1cc(Nc2ccc(C(=O)/C=C/c3ccc(Br)cn3)cc2)n2nc(SCc3nc4ccccc4[nH]3)nc2n1`, the 50% growth inhibitory concentration (GI50) in the series on MKN-45, in the series with SGC-7901, in the series on HGC-27, with BGC-823 and in the series with MGC-803 [2] was 640 nM each time. For the same compound, the GI50 result in the series on EJ and with A549 was “inactive” each time. The Activity result in the series with GES1 is “Non-Toxic”. In addition, the inhibition at 10 µM in the series on MGC-803 [1] was determined as 96.8%.
In the case of `Cc1cc(Nc2ccc(C(=O)/C=C/c3cccc(Br)n3)cc2)n2nc(SCc3ccc(Cl)cc3)nc2n1`, the inhibition at 10 µM with MGC-803 [1] was determined as 90.2%.
Consider `O=c1[nH]cc(F)c(=O)[nH]1` [FLUOROURACIL], for which the concentration for 50% growth inhibition (GI50) entry in the series on MKN-45, with SGC-7901, with HGC-27, with EJ, in the series on A549 and in the series with BGC-823 was “Active” each time. Moreover, the concentration for 50% growth inhibition (GI50) result in the series on MGC-803 [2] was “Active”. The Activity entry in the series on GES1 is given as “Toxic”.
On to `O=C(/C=C/c1cccc(Br)n1)c1ccc(Nc2c3c(nc4ncnn24)CCC3)cc1`, for which the inhibition at 10 µM with MGC-803 [1] was found to be 49.9%.
As for `Cc1cc(Nc2ccc(C(=O)/C=C/c3cccc(Br)n3)cc2)n2nc(SCc3ccc(C(F)(F)F)cc3)nc2n1`, in the series on MGC-803 [1], the inhibition at 10 µM turned out to be 96.6%.
On the same count and under the same terms, under `CCc1cc(Nc2ccc(C(=O)/C=C/c3cccc(Br)n3)cc2)n2nc(SCc3ccccc3)nc2n1` stands 63%.
As to `Cc1cc(Nc2ccc(C(=O)/C=C/c3cccc(Br)n3)cc2)n2nc(SCc3ccccc3)nc2n1`, the inhibition at 10 µM in the series on MGC-803 [1] was determined as 90.2%.
Turning to `C#CCSc1nc2nc(C)cc(Nc3ccc(C(=O)/C=C/c4cccc(Br)n4)cc3)n2n1`, the inhibition at 10 µM in the series with MGC-803 [1] stood at 94.4%.
On to `Cc1cc(Nc2ccc(C(=O)/C=C/c3cccc(Br)n3)cc2)n2nc(SCCCc3ccccc3)nc2n1`, for which the inhibition at 10 µM in the series on MGC-803 [1] worked out at 76.7%.
Consider `Cc1cc(Nc2ccc(N3CCN(C)CC3)cc2)n2nc(SCc3nc4ccccc4[nH]3)nc2n1`, for which the inhibition at 10 µM with MGC-803 [1] came out at 78.1%.
Consider `Cc1cc(Nc2ccc(C(=O)/C=C/c3ccccc3)cc2)n2nc(SCc3nc4ccccc4[nH]3)nc2n1`, for which, in the series with MGC-803 [1], the inhibition at 10 µM was found to be 94.5%.
Take `Cc1cc(Nc2ccc(C(=O)/C=C/c3cccc(Br)n3)cc2)n2nc(SCc3ccc(Br)cc3)nc2n1`: the inhibition at 10 µM in the series with MGC-803 [1] was 96.3%.
`Cc1cc(Nc2ccc(C(=O)/C=C/c3cccc(Br)n3)cc2)n2nc(SCc3ccc([N+](=O)[O-])cc3)nc2n1`: in the series on MGC-803 [1], the inhibition at 10 µM came out at 91.6%.
